The values below come from patent publication US7713994B2 (Wyeth LLC, priority 2005, dated 2010).

The subject of one experiment is BT474. The experiment in a line: Cytotoxicity assay (SRB), BT474. In kind it is cell-based. As to conditions: Homo sapiens, BT-474, 144 h, BT474 cells, 6 days, SRB; read-out: In Vitro Cellular Activity IC50 BT474. Summed up:
(§1)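 Protein staining with sulforhodamine B after cold TCA fixation served as the survival endpoint (A540, relative to untreated cells). Before staining, cells were incubated with compound at 37 °C, 7% CO2 for 3 days, or 6 days for BT474.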

The next experiment has as its system HCT-116. Put plainly: Cytotoxicity assay (SRB), HCT-116. In kind it is cell-based. As to conditions: Homo sapiens, HCT-116, 72 h, HCT116 cells, 3 days, SRB; read-out: In Vitro Cellular Activity IC50 HCT116. The method in brief: as §1
For another experiment, the system named is LoVo. The experiment in a line: Cytotoxicity assay (SRB), LoVo. To be noted: Homo sapiens, LoVo, 72 h, LoVo cells, 3 days, SRB; read-out: In Vitro Cellular Activity IC50 LOVO. In kind it is cell-based. The method in brief: as §1
For the next experiment, the target named is T1, cyclin D1/cdk 4 enzyme (Homo sapiens, UniProt P11802).
T1 construct: made in house; host or cells: Sf9 insect cells, recombinant baculovirus
T1 sequence (P11802 whole entry, species assumed): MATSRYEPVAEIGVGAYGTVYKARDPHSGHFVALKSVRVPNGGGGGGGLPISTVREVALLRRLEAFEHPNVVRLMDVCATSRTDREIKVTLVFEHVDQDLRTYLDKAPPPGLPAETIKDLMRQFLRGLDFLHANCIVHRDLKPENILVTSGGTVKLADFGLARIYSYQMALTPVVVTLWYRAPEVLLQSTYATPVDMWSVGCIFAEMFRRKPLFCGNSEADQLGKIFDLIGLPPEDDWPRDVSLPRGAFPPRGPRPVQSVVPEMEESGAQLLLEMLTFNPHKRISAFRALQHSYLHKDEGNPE
T1 sequence (P24385 whole entry partner, species assumed): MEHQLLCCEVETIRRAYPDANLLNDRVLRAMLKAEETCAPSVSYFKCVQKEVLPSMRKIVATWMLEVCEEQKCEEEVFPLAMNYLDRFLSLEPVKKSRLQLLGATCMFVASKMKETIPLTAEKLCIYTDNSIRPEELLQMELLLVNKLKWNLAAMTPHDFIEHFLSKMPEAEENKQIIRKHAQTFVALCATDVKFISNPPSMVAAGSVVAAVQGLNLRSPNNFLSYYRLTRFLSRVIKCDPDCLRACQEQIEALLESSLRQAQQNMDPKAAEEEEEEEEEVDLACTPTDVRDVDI
Put plainly: CDK4 ELISA kinase assay (phospho-Rb ser 795 detection). In kind it is biochemical. As to conditions: In Vitro Enzyme Assays, 200 μM ATP, read-out: CDK4 IC50. The method in brief: (§2)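 GST-Rb C-terminal fragment coated on plates; partially purified Sf9-expressed cyclin D1/CDK4, cyclin E/CDK2 or cyclin B/CDK1 with 200 μM ATP, pH 7.5 HEPES/MgCl2 buffer, 1 h at 30 °C; screen compound final 10 μg/ml. Phospho-Rb Ser795 detected by antibody ELISA (TMB, A450); % of control, IC50 from background-subtracted inhibition curves.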
(An ELISA detects its analyte on a solid surface through an enzyme-linked reagent.)

In the next experiment the target is T2, cyclin E/CDK2 enzyme (Homo sapiens, UniProt P24941).
T2 construct: made in house; host or cells: Sf9 insect cells, recombinant baculovirus
The experiment in a line: CDK2 ELISA kinase assay (phospho-Rb ser 795 detection). In kind it is biochemical. As to conditions: In Vitro Enzyme Assays, read-out: CDK2 IC50. Summed up: as §2

The next experiment concerns the target T3, cyclin B/CDK1 enzyme (Homo sapiens, UniProt P06493).
T3 construct: purchased New England BioLabs; host or cells: Sf9 insect cells, recombinant baculovirus
The experiment in a line: CDK1 ELISA kinase assay (phospho-Rb ser 795 detection). In kind it is biochemical. To be noted: In Vitro Enzyme Assays, read-out: CDK1 IC50. The method in brief: as §2

The subject of another experiment is MCF-7. Put plainly: Cytotoxicity assay (SRB), MCF-7. In kind it is cell-based. To be noted: Homo sapiens, MCF7, 72 h, MCF-7 cells, 3 days, SRB; read-out: In Vitro Cellular Activity IC50 MCF-7. The method in brief: as §1

T3 sequence (P06493 whole entry): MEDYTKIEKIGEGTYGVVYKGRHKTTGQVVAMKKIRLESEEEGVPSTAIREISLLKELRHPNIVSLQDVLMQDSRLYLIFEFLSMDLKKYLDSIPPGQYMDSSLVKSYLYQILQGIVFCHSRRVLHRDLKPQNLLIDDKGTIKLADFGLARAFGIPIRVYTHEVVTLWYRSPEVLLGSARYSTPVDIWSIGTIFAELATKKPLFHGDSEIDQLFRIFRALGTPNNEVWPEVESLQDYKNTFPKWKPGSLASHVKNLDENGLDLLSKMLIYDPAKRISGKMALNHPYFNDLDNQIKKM
T3 sequence (P14635 whole entry partner): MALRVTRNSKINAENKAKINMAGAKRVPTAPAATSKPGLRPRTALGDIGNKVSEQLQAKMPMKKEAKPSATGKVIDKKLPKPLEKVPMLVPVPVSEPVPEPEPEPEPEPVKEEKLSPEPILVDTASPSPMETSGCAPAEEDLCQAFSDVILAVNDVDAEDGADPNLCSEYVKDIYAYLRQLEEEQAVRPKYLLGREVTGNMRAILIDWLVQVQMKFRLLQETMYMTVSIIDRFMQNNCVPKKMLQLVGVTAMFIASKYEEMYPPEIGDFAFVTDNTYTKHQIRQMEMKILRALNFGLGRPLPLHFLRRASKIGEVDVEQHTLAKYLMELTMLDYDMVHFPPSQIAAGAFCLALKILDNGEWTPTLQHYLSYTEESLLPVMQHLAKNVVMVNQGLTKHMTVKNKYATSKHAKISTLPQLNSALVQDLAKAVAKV

Turning to `CN(C)C/C=C/C(=O)N1CCCC1c1ccc(N/C=C2\C(=O)NC(=O)c3ccc(I)cc32)cc1` (centres unmarked) [Example 402, 4-({4-[1-(4-Dimethylamino-but-2-enoyl)-pyrrolidin-2-yl]-phenylamino}-methylene)-6-iodo-4H-isoquinoline-1,3-dione], the IC50 is 7.1 µM with BT474; 4 µM with HCT-116; 6 µM in the experiment on LoVo; 2.9 µM on cyclin D1/cdk 4 enzyme; above 50 µM at cyclin E/CDK2 enzyme; above 50 µM on cyclin B/CDK1 enzyme. In addition, the IC50 in the experiment on MCF-7 turned out to be 7.6 µM.
Take `O=C1NC(=O)c2ccc(-c3ccsc3)cc2/C1=C/Nc1ccc(C2CC=CCN2)cc1` (centres unmarked) [Example 404, 4-{[4-(1,2,3,6-Tetrahydro-pyridin-2-yl)-phenylamino]-methylene}-6-thiophen-3-yl-4H-isoquinoline-1,3-dione]: the IC50 is 3.1 µM with BT474; 1.6 µM in the experiment with HCT-116; 3.1 µM with LoVo; 0.1 µM at cyclin D1/cdk 4 enzyme; 14.4 µM at cyclin E/CDK2 enzyme; 25.3 µM on cyclin B/CDK1 enzyme. Further, the half-maximal inhibitory concentration (IC50) in the experiment with MCF-7 is 7.3 µM.
For `O=C1NC(=O)c2ccc(I)cc2/C1=C/Nc1ccc(N2CCNCC2)nc1` [Example 410, (4Z)-6-Iodo-4-{[(6-piperazin-1-ylpyridin-3-yl)amino]methylene}isoquinoline-1,3(2H,4H)-dione], the IC50 in the experiment with BT474 was found to be 2.3 µM; with HCT-116, 2.8 µM; in the experiment on LoVo, 6.8 µM; on cyclin D1/cdk 4 enzyme it was 2.1 µM; at cyclin E/CDK2 enzyme it was 17.6 µM; on cyclin B/CDK1 enzyme it was 25.3 µM. The half-inhibitory concentration (IC50) in the experiment on MCF-7 stood at 5.1 µM.
Regarding `CCOC[C@@H]1CCCN1Cc1ccc(N/C=C2\C(=O)NC(=O)c3ccc(I)cc32)cc1` [Example 411, 4-{[4-(2-Ethoxymethyl-pyrrolidin-1-ylmethyl)-phenylamino]-methylene}-6-iodo-4H-isoquinoline-1,3-dione], the IC50 in the experiment with BT474 was 0.45 µM; with HCT-116 it was 3.8 µM; with LoVo it was 3.5 µM; at cyclin D1/cdk 4 enzyme, 0.7 µM; on cyclin E/CDK2 enzyme, above 50 µM; at cyclin B/CDK1 enzyme, above 50 µM. The IC50 with MCF-7 is 1.6 µM.
Turning to `CN(C)CC1CCCN1c1ccc(N/C=C2\C(=O)NC(=O)c3ccc(I)cc32)cc1F` (centres unmarked) [Example 412, 4-{[4-(2-Dimethylaminomethyl-pyrrolidin-1-yl)-3-fluoro-phenylamino]-methylene}-6-iodo-4H-isoquinoline-1,3-dione], the IC50 in the experiment on BT474 was 5.6 µM; in the experiment on HCT-116 it was 1.8 µM; with LoVo, 3.2 µM; at cyclin D1/cdk 4 enzyme, 3.3 µM; at cyclin E/CDK2 enzyme it was above 50 µM; on cyclin B/CDK1 enzyme it was above 50 µM. Also, the IC50 in the experiment on MCF-7 was 4.3 µM.
`CC(C)N1CCN(c2ccc(N/C=C3\C(=O)NC(=O)c4ccc(I)cc43)cn2)CC1` [Example 413]: the IC50 was 5 µM in the experiment with BT474; 1.9 µM in the experiment with HCT-116; 3.3 µM in the experiment on LoVo; 0.19 µM on cyclin D1/cdk 4 enzyme; above 50 µM at cyclin E/CDK2 enzyme; above 50 µM on cyclin B/CDK1 enzyme. The IC50 with MCF-7 is 5.8 µM.
In the case of `CCN1CCN(c2ccc(N/C=C3\C(=O)NC(=O)c4ccc(I)cc43)cn2)CC1` [Example 414, (4Z)-4-({[6-(4-Ethylpiperazin-1-yl)pyridin-3-yl]amino}methylene)-6-iodoisoquinoline-1,3(2H,4H)-dione], the IC50 in the experiment on BT474 is 6.2 µM; in the experiment on HCT-116, 2.4 µM; in the experiment on LoVo, 6.2 µM; at cyclin D1/cdk 4 enzyme, 0.5 µM; at cyclin E/CDK2 enzyme it was above 50 µM; at cyclin B/CDK1 enzyme, above 50 µM. The 50% inhibitory concentration (IC50) in the experiment with MCF-7 worked out at 6 µM.
Take `O=C1NC(=O)c2ccc(I)cc2/C1=C/Nc1ccc(N2CCN(CC3CC3)CC2)nc1` [Example 415, (4Z)-4-[({6-[4-(Cyclopropylmethyl)piperazin-1-yl]pyridin-3-yl}amino)methylene]-6-iodoisoquinoline-1,3(2H,4H)-dione]: the IC50 is 2.9 µM with BT474; 1.2 µM in the experiment on HCT-116; 2 µM with LoVo; 1.5 µM on cyclin D1/cdk 4 enzyme; above 50 µM on cyclin E/CDK2 enzyme; above 50 µM at cyclin B/CDK1 enzyme. Besides, in the experiment on MCF-7, the IC50 was 3.6 µM.
In the case of `CCN1CCN(c2ccc(N/C=C3\C(=O)NC(=O)c4ccc(-c5ccoc5)cc43)cn2)CC1` [Example 416, (4Z)-4-({[6-(4-Ethylpiperazin-1-yl)pyridin-3-yl]amino}methylene)-6-(3-furyl)isoquinoline-1,3(2H,4H)-dione], the IC50 in the experiment on BT474 is 2.5 µM; in the experiment on HCT-116, 2.7 µM; with LoVo, 3.1 µM; on cyclin D1/cdk 4 enzyme, 0.13 µM; on cyclin E/CDK2 enzyme, above 50 µM; on cyclin B/CDK1 enzyme, above 50 µM. In addition, in the experiment on MCF-7, the IC50 is 6.2 µM.
In the case of `CC(C)N1CCN(c2ccc(N/C=C3\C(=O)NC(=O)c4ccc(-c5ccsc5)cc43)cn2)CC1` [Example 417, (4Z)-4-({[6-(4-Isopropylpiperazin-1-yl)pyridin-3-yl]amino}methylene)-6-(3-thienyl)isoquinoline-1,3(2H,4H)-dione], the half-maximal inhibitory concentration (IC50) with BT474 is 2.8 µM; with HCT-116, 1.3 µM; in the experiment with LoVo, 3.1 µM; on cyclin D1/cdk 4 enzyme, 0.03 µM; at cyclin E/CDK2 enzyme, above 50 µM; on cyclin B/CDK1 enzyme, above 50 µM. In addition, in the experiment with MCF-7, the IC50 came out at 3.2 µM.
With `O=C1NC(=O)c2ccc(-c3ccsc3)cc2/C1=C/Nc1ccc(N2CCN(CC3CC3)CC2)nc1` [Example 418, (4Z)-4-[({6-[4-(Cyclopropylmethyl)piperazin-1-yl]pyridin-3-yl}amino)methylene]-6-(3-thienyl)isoquinoline-1,3(2H,4H)-dione], the IC50 in the experiment with BT474 was 2.7 µM; with HCT-116 it was 1.4 µM; in the experiment with LoVo, 2.4 µM; on cyclin D1/cdk 4 enzyme it was 0.02 µM; on cyclin E/CDK2 enzyme, above 50 µM; on cyclin B/CDK1 enzyme, above 50 µM. Further, in the experiment with MCF-7, the IC50 turned out to be 3.2 µM.
For `C=CCN1CCCC1c1ccc(N/C=C2\C(=O)NC(=O)c3ccc(I)cc32)cc1` (centres unmarked) [Example 419, 4-{[4-(1-Allyl-pyrrolidin-2-yl)-phenylamino]-methylene}-6-iodo-4H-isoquinoline-1,3-dione], the half-inhibitory concentration (IC50) with BT474 was 12.9 µM; with HCT-116 it was 7 µM; in the experiment with LoVo, 12 µM; on cyclin D1/cdk 4 enzyme, 0.77 µM; on cyclin E/CDK2 enzyme, 31 µM; on cyclin B/CDK1 enzyme it was above 50 µM. The IC50 with MCF-7 worked out at 7.6 µM.
In the case of `C=CCN1CCCC1c1ccc(N/C=C2\C(=O)NC(=O)c3ccc(-c4ccsc4)cc32)cc1` (centres unmarked) [Example 420, 4-{[4-(1-Allyl-pyrrolidin-2-yl)-phenylamino]-methylene}-6-thiophen-3-yl-4H-isoquinoline-1,3-dione], the IC50 with BT474 was 7.7 µM; in the experiment on HCT-116, 4 µM; in the experiment on LoVo, 16.2 µM; on cyclin D1/cdk 4 enzyme it was 0.11 µM; on cyclin E/CDK2 enzyme, above 50 µM; at cyclin B/CDK1 enzyme it was above 50 µM. Also, in the experiment with MCF-7, the IC50 came to 36.8 µM.
`Nc1cnc(CN/C=C2\C(=O)NC(=O)c3ccc(I)cc32)cc1O` [Example 424, 4-{[(5-Amino-4-hydroxy-pyridin-2-ylmethyl)-amino]-methylene}-6-iodo-4H-isoquinoline-1,3-dione]: the IC50 is 12.7 µM with BT474; above 50 µM with HCT-116; above 50 µM in the experiment with LoVo; 0.06 µM at cyclin D1/cdk 4 enzyme; 1.5 µM at cyclin E/CDK2 enzyme; 6.3 µM at cyclin B/CDK1 enzyme. In addition, in the experiment with MCF-7, the IC50 is above 50 µM.

As usually defined, the IC50 is the concentration that inhibits the measured activity by half.
